From patent US5466440A, “Formulations of oral gastrointestinal diagnostic X-ray contrast agents in combination with pharmaceutically acceptable clays” (Eastman Kodak Company, priority 1994, dated 1995)
In brackets after ≈: the same amount, converted by molar mass.

Assays:
Aqueous solubility = assay type: physicochemical; settings: water, Table 3
[1] = X-ray diagnostic imaging of the GI tract; assay type: in vivo, rats; settings: for Imaging efficacy, stabilized with Pluronic F88: milled with F88
Experimental: X-ray diagnostic imaging was performed in anesthetized rats with the exception of G05-R1 samples which were imaged in fasted and anesthetized ferrets. Images were obtained using the Siemens C-Arm Siremobil 3U x-ray unit. The imaging dose was 10 ml/kg administered via gastric intubation to the anesthetized animal. X-rays were taken at 15, 30, 45 and 60 minutes and at 1, 2, 5 and 24 hours post-dose. […]
Images were evaluated by the criteria of: coating, homogeneity, rate of gastric emptying and the total transit time. These are considered to be a measure of the stability of the nanosuspension during transit down the GI tract and the ability of the formulation to image the lower gastrointestinal tract. Nanosuspensions were rated excellent when there was a uniform coating with transradiation of long intestinal segments, sufficient radiodensity to delineate anatomical structure, rapid emptying and transit, and stability and homogeneity during GI transit. A plus sign (+) was assigned when imaging in the lower GI was exceptional, a minus sign (-) as given when it was not. […] All other nanosuspensions were compared with this formulation.

[2] = X-ray diagnostic imaging of the GI tract; assay type: in vivo; settings: ferrets; milled in Pluronic F127
Experimental: X-ray diagnostic imaging was performed in anesthetized rats with the exception of G05-R1 samples which were imaged in fasted and anesthetized ferrets. Images were obtained using the Siemens C-Arm Siremobil 3U x-ray unit. The imaging dose was 10 ml/kg administered via gastric intubation to the anesthetized animal. X-rays were taken at 15, 30, 45 and 60 minutes and at 1, 2, 5 and 24 hours post-dose. A 10-15 ml volume of air was introduced to the animal at 30 minutes to produce a double contrast image.
Images were evaluated by the criteria of: coating, homogeneity, rate of gastric emptying and the total transit time. These are considered to be a measure of the stability of the nanosuspension during transit down the GI tract and the ability of the formulation to image the lower gastrointestinal tract. Nanosuspensions were rated excellent when there was a uniform coating with transradiation of long intestinal segments, sufficient radiodensity to delineate anatomical structure, rapid emptying and transit, and stability and homogeneity during GI transit. A plus sign (+) was assigned when imaging in the lower GI was exceptional, a minus sign (-) as given when it was not. The nanosuspension of WIN 8883 milled in Pluronic F127, was considered to be excellent for both upper and lower GI imaging in both rats and ferrets. All other nanosuspensions were compared with this formulation.

Compound | solubility (Aqueous solubility) | Lower GI imaging [1] | Imaging efficacy, overall [1] | also measured
CCOC(=O)CCCCCOC(=O)c1c(I)c(NC(C)=O)c(I)c(NC(C)=O)c1I [WIN 67722, 6-Ethoxy-6-oxohexyl 3,5-bis(acetylamino)-2,4,6-triiodobenzoate] | 2 µg/mL (≈ 2.65 µM) | poor |  | Upper GI imaging [1]: good
CCOC(=O)c1c(I)c(NC(C)=O)c(I)c(C(=O)OCC)c1I [WIN 59316, Diethyl 5-acetylamino-2,4,6-triiodo-isophthalate] | 1 µg/mL (≈ 1.52 µM) | imaging well in the lower GI tract | fair | 
CCOC(=O)C(C)(OC(=O)c1c(I)c(NC(C)=O)c(I)c(NC(C)=O)c1I)C(=O)OCC [WIN 67975] | 8 µg/mL (≈ 10.2 µM) |  | fair | 
CCCCC(CC)COC(=O)CC(C(=O)OCC(CC)CCCC)S(=O)(=O)O (stereo not shown) [DOSS, dioctylsulfosuccinate] |  |  |  | Stabilizing effect on imaging efficacy ([1]; stabilizer for WIN 8883 nanosuspension): fair
CCc1c(I)c(CC)c(I)c(CC)c1I [WIN 68756, 1,3,5-Triethyl-2,4,6-triiodobenzene] | < 1 µg/mL | not as definitive as with WIN 8883 | excellent | Imaging efficacy, stabilized with Pluronic F88 [1]: loss of efficacy
CCOC(=O)C(CC)OC(=O)c1c(I)c(NC(C)=O)c(I)c(C(=O)OC(CC)C(=O)OCC)c1I (stereo not shown) [WIN 68183, Bis-[1-(ethoxycarbonyl)propyl]-2,4,6-triiodo-5-acetylamino-isophthalate] | < 1 µg/mL | not as definitive as with WIN 8883 | excellent | Imaging efficacy, stabilized with Pluronic F88 [1]: loss of efficacy
CC(=O)Nc1c(I)c(NC(C)=O)c(I)c(C(=O)OC(C(=O)OC(C)C)C(=O)OC(C)C)c1I [WIN 68165, Propanedioic Acid, [[3,5-bis-(acetylamino)-2,4,6-triiodo-benzoyl]oxy]-bis(1-methylethyl)ester] | 1 µg/mL (≈ 1.25 µM) |  | fair | 
CC(=O)Nc1c(I)c(NC(C)=O)c(I)c(C(=O)OCc2ccc(C(=O)OC(C)C)cc2)c1I [WIN 67956, 3,5-Bis-acetylamino-2,4,6-triiodo-benzoic acid 4-isopropyl benzoate ester] | 1 µg/mL (≈ 1.27 µM) |  | good | Gastric emptying [1]: very rapid gastric emptying; Coating ([1]; repeated with air given at 15 minutes to induce double contrast): No improvement in coating
CC(=O)Nc1c(I)c(NC(C)=O)c(I)c(C(=O)OCCCCCC(=O)OC(C)C)c1I [WIN 67995, 3,5,-Bis-acetylamino-2,4,6-triiodo-benzoic acid 5-isopropoxycarbonyl-pentylester] | 1 µg/mL (≈ 1.3 µM) | poor |  | Upper GI imaging [1]: good
CCOC(=O)c1c(I)c(NC(C)=O)c(I)c(NC(C)=O)c1I [WIN 8883, Ethyl 3,5-bis(acetylamino)-2,4,6-triiodobenzoate] | < 5 µg/mL |  | excellent | Upper and lower GI imaging [2]: excellent; Imaging efficacy, stabilized with Pluronic F88 [1]: excellent imaging, and then only in the upper GI; Upper and lower GI imaging ([1]; rats, milled in Pluronic F127): excellent
COc1ccc(COC(=O)c2c(I)c(NC(C)=O)c(I)c(NC(C)=O)c2I)cc1 [WIN 67754, 3,5-Bis-acetylamino-2,4,6-triiodo-benzoic acid 4-methoxy-benzyl ester] | 15 µg/mL (≈ 20.4 µM) | exceptional | good | 
